Source: US8614201B2 (Janssen Pharmaceutica NV, priority 2009, dated 2013)

Molecular target: Human TRPA1 (Homo sapiens, UniProt O75762)
Test: Assay 1: In vitro cellular testing of TRPA1 modulation (CHO-TREx, Fluo-3 calcium fluorescence, AITC agonist)
Assay type: cell-based
Design: expressed in transfected cells; host or cells: CHO-TREx cells (Invitrogen), vector pcDNA4/TO
Details: CHO-TREx cells expressing human TRPA1; Fluo-3 fluorescence (FLIPR/Tetra); agonist 15 μM allyl isothiocyanate (AITC); 30 minute antagonist incubation
Summary of the method: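 Tetracycline-induced CHO-TREx cells stably expressing human TRPA1, loaded with 4 μM Fluo-3 AM, preincubated 30 min with compound (serial dilution typically from 10 μM, three-fold steps) in HEPES saline pH 7.4. Fluorescence change over 3 min after 15 μM AITC; IC50 from Hill fit versus no-antagonist and 10 μM ruthenium red controls.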

Human TRPA1, sequence (O75762 whole entry): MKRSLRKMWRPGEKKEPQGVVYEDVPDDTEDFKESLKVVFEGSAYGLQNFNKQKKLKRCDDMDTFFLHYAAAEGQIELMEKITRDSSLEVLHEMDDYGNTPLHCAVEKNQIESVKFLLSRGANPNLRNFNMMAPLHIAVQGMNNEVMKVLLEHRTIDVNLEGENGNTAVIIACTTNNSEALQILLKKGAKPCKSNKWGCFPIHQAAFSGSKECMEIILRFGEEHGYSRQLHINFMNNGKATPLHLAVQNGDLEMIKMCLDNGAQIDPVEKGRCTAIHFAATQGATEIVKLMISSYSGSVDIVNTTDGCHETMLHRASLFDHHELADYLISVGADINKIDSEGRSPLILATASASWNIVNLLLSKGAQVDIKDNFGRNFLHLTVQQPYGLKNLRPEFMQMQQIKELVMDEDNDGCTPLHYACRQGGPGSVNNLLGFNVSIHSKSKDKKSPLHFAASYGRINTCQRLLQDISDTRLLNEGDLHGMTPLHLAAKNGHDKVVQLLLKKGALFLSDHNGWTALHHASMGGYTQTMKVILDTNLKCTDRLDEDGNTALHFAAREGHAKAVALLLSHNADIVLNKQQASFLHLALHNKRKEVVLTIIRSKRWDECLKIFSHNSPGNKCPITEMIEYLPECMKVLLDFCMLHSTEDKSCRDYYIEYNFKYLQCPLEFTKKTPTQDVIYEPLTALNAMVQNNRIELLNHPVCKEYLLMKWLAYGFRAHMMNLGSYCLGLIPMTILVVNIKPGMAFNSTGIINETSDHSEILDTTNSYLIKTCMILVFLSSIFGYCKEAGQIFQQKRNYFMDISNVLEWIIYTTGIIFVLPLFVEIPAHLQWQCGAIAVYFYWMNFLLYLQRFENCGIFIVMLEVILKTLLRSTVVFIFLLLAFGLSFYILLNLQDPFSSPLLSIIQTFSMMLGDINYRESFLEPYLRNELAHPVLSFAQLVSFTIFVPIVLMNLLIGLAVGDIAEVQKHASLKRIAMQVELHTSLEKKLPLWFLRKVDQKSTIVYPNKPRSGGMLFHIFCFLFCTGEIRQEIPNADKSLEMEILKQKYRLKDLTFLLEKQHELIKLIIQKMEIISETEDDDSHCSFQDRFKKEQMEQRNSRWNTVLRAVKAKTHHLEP

SMILES	IC50 [µM]
O=C(NCc1cc(-c2ccc(C(F)(F)F)cc2)nc(N2CCN(c3ccccc3F)CC2)c1)[C@@H]1CC(F)(F)CN1S(=O)(=O)c1ccc(Cl)s1 [Example 358, 1-[(5-Chlorothiophen-2-yl)sulfonyl]-4,4-difluoro-N-({2-[4-(2-fluorophenyl)piperazin-1-yl]-6-[4-(trifluoromethyl)phenyl]pyridin-4-yl}methyl)-L-prolinamide]	> 10
O=C(NCc1cc(-c2ccc(C(F)(F)F)cc2)nc(N2CCN(c3ccccc3F)CC2)c1)[C@@H]1C=CCN1S(=O)(=O)c1ccc(Cl)s1 [Example 359, (2S)-1-[(5-Chlorothiophen-2-yl)sulfonyl]-N-({2-[4-(2-fluorophenyl)piperazin-1-yl]-6-[4-(trifluoromethyl)phenyl]pyridin-4-yl}methyl)-2,5-dihydro-1H-pyrrole-2-carboxamide]	1.19
CNc1cc(CNC(=O)[C@@H]2CC(F)(F)CN2S(=O)(=O)c2ccc(F)cc2)cc(-c2ccc(C(F)(F)F)cc2)n1 [Example 360, 4,4-Difluoro-1-[(4-fluorophenyl)sulfonyl]-N-({2-(methylamino)-6-[4-(trifluoromethyl)phenyl]pyridin-4-yl}methyl)-L-prolinamide]	2.28
O=C(NCc1cc(-c2ccc(C(F)(F)F)cc2)nc(N2CCN(Cc3ccccc3)CC2)c1)[C@@H]1C=CCN1S(=O)(=O)c1ccc(F)cc1 [Example 361, (2S)—N-({2-(4-Benzylpiperazin-1-yl)-6-[4-(trifluoromethyl)phenyl]pyridin-4-yl}methyl)-1-[(4-fluorophenyl)sulfonyl]-2,5-dihydro-1H-pyrrole-2-carboxamide]	0.452
O=C(NCc1cc(-c2ccc(C(F)(F)F)cc2)nc(N2CCN(Cc3cccnc3)CC2)c1)[C@@H]1CC(F)(F)CN1S(=O)(=O)c1ccc(F)cc1 [Example 363, 4,4-Difluoro-1-[(4-fluorophenyl)sulfonyl]-N-({2-[4-(pyridin-3-ylmethyl)piperazin-1-yl]-6-[4-(trifluoromethyl)phenyl]pyridin-4-yl}methyl)-L-prolinamide]	4.87
O=C(NCc1cc(NCc2ccncc2)nc(-c2ccc(C(F)(F)F)cc2)c1)[C@@H]1CCCN1S(=O)(=O)c1ccc(Cl)s1 [Example 364, 1-[(5-Chlorothiophen-2-yl)sulfonyl]-N-({2-[(pyridin-4-ylmethyl)amino]-6-[4-(trifluoromethyl)phenyl]pyridin-4-yl}methyl)-L-prolinamide]	2.73
O=C(NCc1cc(-c2ccc(C(F)(F)F)cc2)nc(N2CCN(Cc3cccnc3)CC2)c1)[C@@H]1C=CCN1S(=O)(=O)c1ccc(F)cc1 [Example 365, (2S)-1-[(4-Fluorophenyl)sulfonyl]-N-({2-[4-(pyridin-3-ylmethyl)piperazin-1-yl]-6-[4-(trifluoromethyl)phenyl]pyridin-4-yl}methyl)-2,5-dihydro-1H-pyrrole-2-carboxamide]	1.69
O=C(NCc1cc(-c2ccc(C(F)(F)F)cc2)nc(N2CCN(Cc3cccnc3)CC2)c1)[C@@H]1CC(F)(F)CN1S(=O)(=O)c1ccc(Cl)s1 [Example 366]	1.65
O=C(NCc1cc(-c2ccc(C(F)(F)F)cc2)nc(N2CCN(Cc3ccccc3)CC2)c1)[C@@H]1CCCN1S(=O)(=O)c1ccc(Cl)s1 [Example 367, N-({2-(4-Benzylpiperazin-1-yl)-6-[4-(trifluoromethyl)phenyl]pyridin-4-yl}methyl)-1-[(5-chlorothiophen-2-yl)sulfonyl]-L-prolinamide]	0.018
O=C(NCc1cc(-c2ccc(C(F)(F)F)cc2)nc(N2CCN(Cc3ccccc3)CC2)c1)[C@@H]1C=CCN1S(=O)(=O)c1ccc(Cl)s1 [Example 368, (2S)—N-({2-(4-Benzylpiperazin-1-yl)-6-[4-(trifluoromethyl)phenyl]pyridin-4-yl}methyl)-1-[(5-chlorothiophen-2-yl)sulfonyl]-2,5-dihydro-1H-pyrrole-2-carboxamide]	0.418
CC(C)CN1CCN(c2cc(CNC(=O)[C@@H]3CCCN3S(=O)(=O)c3ccc(Cl)s3)cc(-c3ccc(C(F)(F)F)cc3)n2)CC1 [Example 369, 1-[(5-Chlorothiophen-2-yl)sulfonyl]-N-({2-[4-(2-methylpropyl)piperazin-1-yl]-6-[4-(trifluoromethyl)phenyl]pyridin-4-yl}methyl)-L-prolinamide]	0.079
CC(C)CN1CCN(c2cc(CNC(=O)[C@@H]3CCCN3S(=O)(=O)c3ccc(F)cc3)cc(-c3ccc(C(F)(F)F)cc3)n2)CC1 [Example 370, 1-[(4-Fluorophenyl)sulfonyl]-N-({2-[4-(2-methylpropyl)piperazin-1-yl]-6-[4-(trifluoromethyl)phenyl]pyridin-4-yl}methyl)-L-prolinamide]	0.115
O=C(NCc1cc(NCc2cccnc2)nc(-c2ccc(C(F)(F)F)cc2)c1)[C@@H]1CCCN1S(=O)(=O)c1ccc(Cl)s1 [Example 371, 1-[(5-Chlorothiophen-2-yl)sulfonyl]-N-({2-[(pyridin-3-ylmethyl)amino]-6-[4-(trifluoromethyl)phenyl]pyridin-4-yl}methyl)-L-prolinamide]	2.06
CNc1cc(CNC(=O)[C@@H]2C=CCN2S(=O)(=O)c2ccc(F)cc2)cc(-c2ccc(C(F)(F)F)cc2)n1 [Example 372, (2S)-1-[(4-Fluorophenyl)sulfonyl]-N-({2-(methylamino)-6-[4-(trifluoromethyl)phenyl]pyridin-4-yl}methyl)-2,5-dihydro-1H-pyrrole-2-carboxamide]	1.61
O=C(NCc1cc(-c2ccc(C(F)(F)F)cc2)nc(N2CCN(Cc3ccccc3)CC2)c1)[C@@H]1CCCN1S(=O)(=O)c1ccc(F)cc1 [Example 373, N-({2-(4-Benzylpiperazin-1-yl)-6-[4-(trifluoromethyl)phenyl]pyridin-4-yl}methyl)-1-[(4-fluorophenyl)sulfonyl]-L-prolinamide]	0.043
O=C(NCc1cc(NCc2ccccn2)nc(-c2ccc(C(F)(F)F)cc2)c1)[C@@H]1CC(F)(F)CN1S(=O)(=O)c1ccc(F)cc1 [Example 374, 4,4-Difluoro-1-[(4-fluorophenyl)sulfonyl]-N-({2-[(pyridin-2-ylmethyl)amino]-6-[4-(trifluoromethyl)phenyl]pyridin-4-yl}methyl)-L-prolinamide]	2.09
O=C(NCc1cc(-c2ccc(C(F)(F)F)cc2)nc(N2CCN(Cc3ccccn3)CC2)c1)[C@@H]1CC(F)(F)CN1S(=O)(=O)c1ccc(Cl)s1 [Example 375, 1-[(5-Chlorothiophen-2-yl)sulfonyl]-4,4-difluoro-N-({2-[4-(pyridin-2-ylmethyl)piperazin-1-yl]-6-[4-(trifluoromethyl)phenyl]pyridin-4-yl}methyl)-L-prolinamide]	1.94
CN(C)c1cc(CNC(=O)[C@@H]2CC(F)(F)CN2S(=O)(=O)c2ccc(Cl)s2)cc(-c2ccc(C(F)(F)F)cc2)n1 [Example 376, 1-[(5-Chlorothiophen-2-yl)sulfonyl]-N-({2-(dimethylamino)-6-[4-(trifluoromethyl)phenyl]pyridin-4-yl}methyl)-4,4-difluoro-L-prolinamide]	0.241
O=C(NCc1cc(-c2ccc(C(F)(F)F)cc2)nc(N2CCN(Cc3ccccc3)CC2)c1)[C@@H]1CC(F)(F)CN1S(=O)(=O)c1ccc(Cl)s1 [Example 377, N-({2-(4-Benzylpiperazin-1-yl)-6-[4-(trifluoromethyl)phenyl]pyridin-4-yl}methyl)-1-[(5-chlorothiophen-2-yl)sulfonyl]-4,4-difluoro-L-prolinamide]	4.71
